For 24 compounds, IC50 results are on record in patent US11795177B2, “Substituted quinoline analogs as aldehyde dehydrogenase 1A1 (ALDH1A1) inhibitors” (THE UNITED STATES OF AMERICA, AS REPRESENTED BY THE …, priority 2017, dated 2023).

For one experiment, the target named is T1, ALDH1A1 enzyme (Homo sapiens, UniProt P00352).
T1 sequence (P00352 1-501): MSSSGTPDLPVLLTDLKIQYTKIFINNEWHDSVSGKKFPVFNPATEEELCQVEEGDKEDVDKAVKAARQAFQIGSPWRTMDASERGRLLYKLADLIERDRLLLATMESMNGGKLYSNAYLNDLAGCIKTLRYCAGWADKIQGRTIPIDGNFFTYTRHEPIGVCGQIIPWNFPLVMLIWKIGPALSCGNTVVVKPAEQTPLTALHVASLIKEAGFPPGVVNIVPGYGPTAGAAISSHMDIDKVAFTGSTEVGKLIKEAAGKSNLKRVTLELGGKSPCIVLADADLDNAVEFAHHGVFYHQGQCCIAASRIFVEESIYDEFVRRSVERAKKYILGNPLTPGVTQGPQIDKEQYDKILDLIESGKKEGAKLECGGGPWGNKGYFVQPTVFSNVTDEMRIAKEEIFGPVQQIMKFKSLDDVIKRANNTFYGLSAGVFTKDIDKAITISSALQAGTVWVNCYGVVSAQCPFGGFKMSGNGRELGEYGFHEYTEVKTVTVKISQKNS
Description: ALDH1A1 enzymatic assay (in vitro). The class given is biochemical. As to conditions: ALDH1A1 enzyme 20 nM, NAD+ 1 mM, propionaldehyde 80 μM; read-out: ALDH1A1 IC50. An outline of the steps: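 ALDH1A1 (20 nM final) in 100 mM HEPES pH 7.5, 0.01% Tween 20 was preincubated 15 min at RT with compound (968 pM–57.2 μM final), then started with 1 mM NAD+ and 80 μM propionaldehyde. NADH fluorescence (ex 340/em 450 nm) followed kinetically for 10 min; change normalized to no-inhibitor and no-enzyme controls for percent inhibition and curve fitting.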

Another experiment has as its system MIA PaCa-2 cells. In words: MIA PaCa2 cell-based assay (1,536-well high-content imaging ALDEFLUOR assay). On the set-up: species or system human. As to conditions: Homo sapiens, 0.5 h, ALDEFLUOR BAAA substrate 500 nM, 30 minutes. In a few lines: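 High-content ALDEFLUOR imaging readout: BAA-retaining cells in FITC channel scored against Hoechst-counted nuclei. Before imaging, MIA PaCa-2 cells seeded at 1,000 per well received final 500 nM BAAA and 0.5 nM Hoechst with compounds in 16-point series (1.4 nM to 47.8 μM), 30 min, 37° C.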

For `CC1(C#N)CCN(c2c(C(=O)N3CCN(C(=O)C4CC4)CC3)cnc3c(F)c(F)c(F)cc23)CC1` [Example 128, 1-(3-(4-(cyclopropanecarbonyl)piperazine-1-carbonyl)-6,7,8-trifluoroquinolin-4-yl)-4-methylpiperidine-4-carbonitrile], the half-maximal inhibitory concentration (IC50) on ALDH1A1 enzyme is < 500 nM; with MIA PaCa-2 cells, 1000 to 10000 nM.
As for `COc1ccc2c(N3CCC4(CC3)OCCO4)c(C(=O)N3CCN(S(C)(=O)=O)CC3)cnc2c1` [Example 129, (7-methoxy-4-(1,4-dioxa-8-azaspiro[4.5]decan-8-yl)quinolin-3-yl)(4-(methylsulfonyl)piperazin-1-yl)methanone], the IC50 is < 500 nM at ALDH1A1 enzyme and 1000 to 10000 nM in the experiment with MIA PaCa-2 cells.
In the case of `COc1cc2ncc(C(=O)N3CCN(S(C)(=O)=O)CC3)c(N3CCC4(CC3)OCCO4)c2cc1OC` [Example 130, (6,7-dimethoxy-4-(1,4-dioxa-8-azaspiro[4.5]decan-8-yl)quinolin-3-yl)(4-(methylsulfonyl)piperazin-1-yl)methanone], the values for the IC50 on ALDH1A1 enzyme and in the experiment with MIA PaCa-2 cells were < 500 nM and 1000 to 10000 nM, respectively.
For `CS(=O)(=O)N1CCN(C(=O)c2cnc3c(F)cc(F)cc3c2N2CCC3(CC2)OCCO3)CC1` [Example 131, (6,8-difluoro-4-(1,4-dioxa-8-azaspiro[4.5]decan-8-yl)quinolin-3-yl)(4-(methylsulfonyl)piperazin-1-yl)methanone], the IC50 was < 500 nM on ALDH1A1 enzyme and 1000 to 10000 nM with MIA PaCa-2 cells.
As for `CS(=O)(=O)N1CCN(C(=O)c2cnc3cc(F)c(F)cc3c2N2CCC3(CC2)OCCO3)CC1` [Example 132, (6,7-difluoro-4-(1,4-dioxa-8-azaspiro[4.5]decan-8-yl)quinolin-3-yl)(4-(methylsulfonyl)piperazin-1-yl)methanone], the results for the half-inhibitory concentration (IC50) at ALDH1A1 enzyme and in the experiment on MIA PaCa-2 cells were < 500 nM and 1000 to 10000 nM, respectively.
On to `COc1c(F)cc2c(N3CCC4(CC3)OCCO4)c(C(=O)N3CCN(S(C)(=O)=O)CC3)cnc2c1F` [Example 133, (6,8-difluoro-7-methoxy-4-(1,4-dioxa-8-azaspiro[4.5]decan-8-yl)quinolin-3-yl)(4-(methylsulfonyl)piperazin-1-yl)methanone], for which the IC50 on ALDH1A1 enzyme was < 500 nM; with MIA PaCa-2 cells, 1000 to 10000 nM.
`CS(=O)(=O)N1CCN(C(=O)c2cnc3c(F)c(F)c(F)cc3c2N2CCC3(CC2)OCCO3)CC1` [Example 134, (4-(methylsulfonyl)piperazin-1-yl)(6,7,8-trifluoro-4-(1,4-dioxa-8-azaspiro[4.5]decan-8-yl)quinolin-3-yl)methanone]: the 50% inhibitory concentration (IC50) was < 500 nM on ALDH1A1 enzyme and 1000 to 10000 nM with MIA PaCa-2 cells.
For `CC1(C#N)CCN(c2c(C(=O)N3CCN(S(C)(=O)=O)CC3)cnc3c(F)cc(F)cc23)CC1` [Example 135, 1-(6,8-difluoro-3-(4-(methylsulfonyl)piperazine-1-carbonyl)quinolin-4-yl)-4-methylpiperidine-4-carbonitrile], the IC50 on ALDH1A1 enzyme was < 500 nM; with MIA PaCa-2 cells, 1000 to 10000 nM.
On the same counts, the results for `CC1(C#N)CCN(c2c(C(=O)N3CCN(S(C)(=O)=O)CC3)cnc3cc(F)c(F)cc23)CC1` [Example 136, 1-(6,7-difluoro-3-(4-(methylsulfonyl)piperazine-1-carbonyl)quinolin-4-yl)-4-methylpiperidine-4-carbonitrile] are < 500 nM and 1000 to 10000 nM.
`COc1c(F)cc2c(N3CCC(C)(C#N)CC3)c(C(=O)N3CCN(S(C)(=O)=O)CC3)cnc2c1F` [Example 137, 1-(6,8-difluoro-7-methoxy-3-(4-(methylsulfonyl)piperazine-1-carbonyl)quinolin-4-yl)-4-methylpiperidine-4-carbonitrile]: the IC50 on ALDH1A1 enzyme is < 500 nM; in the experiment with MIA PaCa-2 cells it was 500 to 1000 nM.
For the compound `CC1(C#N)CCN(c2c(C(=O)N3CCN(S(C)(=O)=O)CC3)cnc3c(F)c(F)c(F)cc23)CC1` [Example 138, 4-methyl-1-(6,7,8-trifluoro-3-(4-(methylsulfonyl)piperazine-1-carbonyl)quinolin-4-yl)piperidine-4-carbonitrile], the figures for the IC50 on ALDH1A1 enzyme and with MIA PaCa-2 cells were < 500 nM and 1000 to 10000 nM, respectively.
Take `CCNC(=O)N1CCN(C(=O)c2cnc3cc(OC)ccc3c2N2CCC3(CC2)OCCO3)CC1` [Example 139, N-ethyl-4-(7-methoxy-4-(1,4-dioxa-8-azaspiro[4.5]decan-8-yl)quinoline-3-carbonyl)piperazine-1-carboxamide]: the IC50 was < 500 nM on ALDH1A1 enzyme and 1000 to 10000 nM with MIA PaCa-2 cells.
Regarding `CCNC(=O)N1CCN(C(=O)c2cnc3cc(OC)c(OC)cc3c2N2CCC3(CC2)OCCO3)CC1` [Example 140, 4-(6,7-dimethoxy-4-(1,4-dioxa-8-azaspiro[4.5]decan-8-yl)quinoline-3-carbonyl)-N-ethylpiperazine-1-carboxamide], the figures for the half-maximal inhibitory concentration (IC50) at ALDH1A1 enzyme and in the experiment with MIA PaCa-2 cells were < 500 nM and > 10000 nM, respectively.
As to `CCNC(=O)N1CCN(C(=O)c2cnc3c(F)cc(F)cc3c2N2CCC3(CC2)OCCO3)CC1` [Example 141, 4-(6,8-difluoro-4-(1,4-dioxa-8-azaspiro[4.5]decan-8-yl)quinoline-3-carbonyl)-N-ethylpiperazine-1-carboxamide], the IC50 at ALDH1A1 enzyme was < 500 nM; with MIA PaCa-2 cells it was 1000 to 10000 nM.
For `CCNC(=O)N1CCN(C(=O)c2cnc3cc(F)c(F)cc3c2N2CCC3(CC2)OCCO3)CC1` [Example 142, 4-(6,7-difluoro-4-(1,4-dioxa-8-azaspiro[4.5]decan-8-yl)quinoline-3-carbonyl)-N-ethylpiperazine-1-carboxamide], in that order: < 500 nM and 1000 to 10000 nM.
For `CCNC(=O)N1CCN(C(=O)c2cnc3c(F)c(OC)c(F)cc3c2N2CCC3(CC2)OCCO3)CC1` [Example 143, 4-(6,8-difluoro-7-methoxy-4-(1,4-dioxa-8-azaspiro[4.5]decan-8-yl)quinoline-3-carbonyl)-N-ethylpiperazine-1-carboxamide], in that order: < 500 nM and 1000 to 10000 nM.
As for `CCNC(=O)N1CCN(C(=O)c2cnc3c(F)c(F)c(F)cc3c2N2CCC3(CC2)OCCO3)CC1` [Example 144, N-ethyl-4-(6,7,8-trifluoro-4-(1,4-dioxa-8-azaspiro[4.5]decan-8-yl)quinoline-3-carbonyl)piperazine-1-carboxamide], the values for the IC50 at ALDH1A1 enzyme and in the experiment with MIA PaCa-2 cells were < 500 nM and 1000 to 10000 nM, respectively.
On the same counts, the results for `CCNC(=O)N1CCN(C(=O)c2cnc3c(F)cc(F)cc3c2N2CCC(C)(C#N)CC2)CC1` [Example 145, 4-(4-(4-cyano-4-methylpiperidin-1-yl)-6,8-difluoroquinoline-3-carbonyl)-N-ethylpiperazine-1-carboxamide] are 500 to 1000 nM and > 10000 nM.
Take `CCNC(=O)N1CCN(C(=O)c2cnc3cc(F)c(F)cc3c2N2CCC(C)(C#N)CC2)CC1` [Example 146, 4-(4-(4-cyano-4-methylpiperidin-1-yl)-6,7-difluoroquinoline-3-carbonyl)-N-ethylpiperazine-1-carboxamide]: the half-inhibitory concentration (IC50) on ALDH1A1 enzyme lay within 500 to 1000 nM; with MIA PaCa-2 cells it was 1000 to 10000 nM.
Turning to `CCNC(=O)N1CCN(C(=O)c2cnc3c(F)c(OC)c(F)cc3c2N2CCC(C)(C#N)CC2)CC1` [Example 147, 4-(4-(4-cyano-4-methylpiperidin-1-yl)-6,8-difluoro-7-methoxyquinoline-3-carbonyl)-N-ethylpiperazine-1-carboxamide], the IC50 at ALDH1A1 enzyme is < 500 nM; in the experiment with MIA PaCa-2 cells, 1000 to 10000 nM.
With `CCNC(=O)N1CCN(C(=O)c2cnc3c(F)c(F)c(F)cc3c2N2CCC(C)(C#N)CC2)CC1` [Example 148, 4-(4-(4-cyano-4-methylpiperidin-1-yl)-6,7,8-trifluoroquinoline-3-carbonyl)-N-ethylpiperazine-1-carboxamide], the IC50 at ALDH1A1 enzyme and in the experiment on MIA PaCa-2 cells was 1000 to 10000 nM throughout.
In the case of `CCN(CC)C(=O)N1CCN(C(=O)c2cnc3ccc(F)cc3c2N2CCC3(CC2)OCCO3)CC1` [Example 149, N,N-diethyl-4-(6-fluoro-4-(1,4-dioxa-8-azaspiro[4.5]decan-8-yl)quinoline-3-carbonyl)piperazine-1-carboxamide], the half-maximal inhibitory concentration (IC50) on ALDH1A1 enzyme is < 500 nM; in the experiment on MIA PaCa-2 cells, 1000 to 10000 nM.
For `O=C(c1cnc2ccc(F)cc2c1N1CCC2(CC1)OCCO2)N1CCN(C(=O)N2CCCC2)CC1` [Example 150, (6-fluoro-4-(1,4-dioxa-8-azaspiro[4.5]decan-8-yl)quinolin-3-yl)(4-(pyrrolidine-1-carbonyl)piperazin-1-yl)methanone], the IC50 at ALDH1A1 enzyme is < 500 nM; in the experiment on MIA PaCa-2 cells it was > 10000 nM.
Regarding `CCS(=O)(=O)N1CCN(C(=O)c2cnc3ccc(F)cc3c2N2CCC3(CC2)OCCO3)CC1` [Example 151, (4-(ethylsulfonyl)piperazin-1-yl)(6-fluoro-4-(1,4-dioxa-8-azaspiro[4.5]decan-8-yl)quinolin-3-yl)methanone], the results for the 50% inhibitory concentration (IC50) at ALDH1A1 enzyme and in the experiment on MIA PaCa-2 cells were < 500 nM and 1000 to 10000 nM, respectively.

One may read the IC50 as the point on the concentration scale where inhibition reaches its midpoint.
